Calls of active or inactive are those of the source. The rule behind the calls is not given here.
How the values were obtained:
[1] = target: Phosphatidylinositol 4,5-bisphosphate 3-kinase catalytic subunit alpha isoform (Homo sapiens, UniProt P42336); test: Inhibition of PI3K alpha by continuous TR-FRET assay
Mus musculus [2] = test: Dose normalized AUC in CD mouse at 100 mg/kg, po; format: ADME, organism-based; set-up: dose 100 mg/kg, route oral; settings: in vivo
Mus musculus [3] = test: Toxicity in nude mouse xenografted with human PC3 cells assessed as body weight loss at 100 and 300 mg/kg administered QD for 21 days; format: organism-based, PC-3; set-up: dose 300 mg/kg; settings: in vivo, 504 h
Blood = test: Ratio of drug uptake in blood at 300 mg/kg to drug uptake in blood at 100 mg/kg in nude mouse bearing PC3 cells; format: functional, PC-3
Mus musculus [4] = test: Inhibition of PI3K beta in human PTEN-deficient PC3 cells xenografted in nude mouse assessed as inhibition of AKT Ser473 phosphorylation at 100 and 300 mg/kg; format: functional, organism-based; set-up: dose 300 mg/kg; settings: PC-3, TDE = time-dependent effect
[5] = target: T1, Phosphatidylinositol 4,5-bisphosphate 3-kinase catalytic subunit delta isoform (Homo sapiens, UniProt O00329); test: Inhibition of PI3K delta by continuous TR-FRET assay
T1 sequence (O00329 whole entry): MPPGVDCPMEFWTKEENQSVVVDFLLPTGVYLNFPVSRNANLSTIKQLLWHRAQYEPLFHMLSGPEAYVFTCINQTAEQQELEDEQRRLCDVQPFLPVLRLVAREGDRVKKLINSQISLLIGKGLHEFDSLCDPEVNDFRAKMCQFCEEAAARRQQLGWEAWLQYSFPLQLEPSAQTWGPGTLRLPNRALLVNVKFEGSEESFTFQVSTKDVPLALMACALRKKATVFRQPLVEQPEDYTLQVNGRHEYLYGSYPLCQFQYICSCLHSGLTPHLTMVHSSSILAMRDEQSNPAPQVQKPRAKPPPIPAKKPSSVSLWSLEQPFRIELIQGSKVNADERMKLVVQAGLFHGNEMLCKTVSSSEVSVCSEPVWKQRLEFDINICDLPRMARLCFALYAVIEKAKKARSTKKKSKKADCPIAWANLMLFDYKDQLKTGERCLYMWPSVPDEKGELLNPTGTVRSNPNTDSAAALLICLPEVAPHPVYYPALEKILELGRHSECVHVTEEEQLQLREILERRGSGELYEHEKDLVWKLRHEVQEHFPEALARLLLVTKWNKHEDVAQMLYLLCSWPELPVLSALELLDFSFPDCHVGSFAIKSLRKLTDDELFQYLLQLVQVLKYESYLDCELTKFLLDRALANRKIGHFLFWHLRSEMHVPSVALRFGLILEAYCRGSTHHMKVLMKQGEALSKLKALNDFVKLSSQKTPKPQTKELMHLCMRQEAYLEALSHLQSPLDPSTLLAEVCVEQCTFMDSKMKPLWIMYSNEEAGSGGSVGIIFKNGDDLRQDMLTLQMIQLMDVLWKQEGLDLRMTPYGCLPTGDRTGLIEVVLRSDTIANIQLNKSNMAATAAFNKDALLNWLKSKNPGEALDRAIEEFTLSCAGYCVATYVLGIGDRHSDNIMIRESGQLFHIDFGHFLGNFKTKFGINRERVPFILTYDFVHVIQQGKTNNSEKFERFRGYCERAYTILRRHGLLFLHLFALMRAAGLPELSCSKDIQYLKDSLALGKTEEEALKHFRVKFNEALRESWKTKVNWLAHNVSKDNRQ

Mus musculus [6] = test: Inhibition of PI3K beta in human PTEN-deficient PC3 cells xenografted in nude mouse assessed as inhibition of AKT Ser473 phosphorylation at 300 mg/kg at 10 hrs; format: functional; settings: PC-3, 10 h
[7] = Clearance in CD mouse at 0.3 mg/kg, iv; format: ADME, organism-based; set-up: dose 0.3 mg/kg, route intravenous; settings: in vivo
MDA-MB-468 = test: Antiproliferative activity against PTEN-deficient human MDA-MB-468 cells; format: functional
[8] = target: T2, Phosphatidylinositol 4,5-bisphosphate 3-kinase catalytic subunit beta isoform (Homo sapiens, UniProt P42338); test: Inhibition of PI3K beta by continuous TR-FRET assay
Mus musculus [9] = test: Inhibition of PI3K beta in human PTEN-deficient PC3 cells xenografted in nude mouse assessed as inhibition of AKT Ser473 phosphorylation at 300 mg/kg at 6 hrs; format: functional; settings: PC-3, 6 h
Mus musculus [10] = test: Inhibition of PI3K beta in human PTEN-deficient PC3 cells xenografted in nude mouse assessed as inhibition of AKT Ser473 phosphorylation at 300 mg/kg at 1 hr; format: functional; settings: PC-3, 1 h
Mus musculus [11] = test: Inhibition of PI3K beta in human PTEN-deficient PC3 cells xenografted in nude mouse assessed as inhibition of AKT Ser473 phosphorylation at 100 mg/kg at 24 hrs; format: functional; settings: PC-3, 24 h
Mus musculus [12] = test: Inhibition of PI3K beta in human PTEN-deficient PC3 cells xenografted in nude mouse assessed as inhibition of AKT Ser473 phosphorylation at 300 mg/kg at 2 hrs; format: functional; settings: PC-3, 2 h
Mus musculus [13] = test: Inhibition of PI3K beta in human PTEN-deficient PC3 cells xenografted in nude mouse assessed as inhibition of AKT Ser473 phosphorylation at 300 mg/kg at 8 hrs; format: functional; settings: PC-3, 8 h
Mus musculus [14] = test: Inhibition of PI3K beta in human PTEN-deficient PC3 cells xenografted in nude mouse assessed as inhibition of AKT Ser473 phosphorylation at 100 mg/kg at 2 hrs; format: functional; settings: PC-3, 2 h
Mus musculus [15] = test: Inhibition of PI3K beta in human PTEN-deficient PC3 cells xenografted in nude mouse assessed as inhibition of AKT Ser473 phosphorylation at 300 mg/kg at 24 hrs; format: functional; settings: PC-3, 24 h
Mus musculus [16] = test: Inhibition of PI3K beta in human PTEN-deficient PC3 cells xenografted in nude mouse assessed as inhibition of AKT Ser473 phosphorylation at 100 mg/kg at 8 hrs; format: functional; settings: PC-3, 8 h
[17] = Oral bioavailability in CD mouse at 100 mg/kg; format: ADME, organism-based; settings: in vivo
[18] = Half life in CD mouse at 0.3 mg/kg, iv; format: ADME, organism-based; set-up: dose 0.3 mg/kg, route intravenous; settings: in vivo
Mus musculus [19] = test: Inhibition of PI3K beta in human PTEN-deficient PC3 cells xenografted in nude mouse assessed as inhibition of AKT Ser473 phosphorylation at 100 mg/kg at 6 hrs; format: functional; settings: PC-3, 6 h
[20] = target: T2, Phosphatidylinositol 4,5-bisphosphate 3-kinase catalytic subunit beta isoform; test: Inhibition of PI3K beta in human PTEN-deficient MDA-MB-468 cells assessed as inhibition of Akt Ser473 phosphorylation; format: cell-based
PC-3 = test: Antitumor activity against human PC3 cells xenografted in nude mouse assessed as tumor growth inhibition at 100 and 300 mg/kg administered QD for 21 days relative to vehicle-treated control; format: functional, organism-based; set-up: dose 300 mg/kg
[21] = target: Phosphatidylinositol 4,5-bisphosphate 3-kinase catalytic subunit gamma isoform (Homo sapiens, UniProt P48736); test: Inhibition of PI3K gamma by continuous TR-FRET assay
Mus musculus [22] = test: Inhibition of PI3K beta in human PTEN-deficient PC3 cells xenografted in nude mouse assessed as inhibition of AKT Ser473 phosphorylation at 100 mg/kg at 1 hr; format: functional; settings: PC-3, 1 h
Mus musculus [23] = test: Inhibition of PI3K beta in human PTEN-deficient PC3 cells xenografted in nude mouse assessed as inhibition of AKT Ser473 phosphorylation at 100 mg/kg at 4 hrs; format: functional; settings: PC-3, 4 h
Nucleic Acid = test: Ratio of drug uptake in tumor at 300 mg/kg to drug uptake in tumor at 100 mg/kg in nude mouse bearing PC3 cells; format: functional, organism-based; settings: Neoplasm, PC-3
[24] = Volume of distribution at steady state in CD mouse at 0.3 mg/kg, iv; format: ADME, organism-based; set-up: dose 0.3 mg/kg, route intravenous; settings: in vivo, read-out: Vdss
Mus musculus [25] = test: Inhibition of PI3K beta in human PTEN-deficient PC3 cells xenografted in nude mouse assessed as inhibition of AKT Ser473 phosphorylation at 300 mg/kg at 4 hrs; format: functional; settings: PC-3, 4 h
Mus musculus [26] = test: Inhibition of PI3K beta in human PTEN-deficient PC3 cells xenografted in nude mouse assessed as inhibition of AKT Ser473 phosphorylation at 100 mg/kg at 10 hrs; format: functional; settings: PC-3, 10 h

T2 sequence (P42338 whole entry, canonical isoform): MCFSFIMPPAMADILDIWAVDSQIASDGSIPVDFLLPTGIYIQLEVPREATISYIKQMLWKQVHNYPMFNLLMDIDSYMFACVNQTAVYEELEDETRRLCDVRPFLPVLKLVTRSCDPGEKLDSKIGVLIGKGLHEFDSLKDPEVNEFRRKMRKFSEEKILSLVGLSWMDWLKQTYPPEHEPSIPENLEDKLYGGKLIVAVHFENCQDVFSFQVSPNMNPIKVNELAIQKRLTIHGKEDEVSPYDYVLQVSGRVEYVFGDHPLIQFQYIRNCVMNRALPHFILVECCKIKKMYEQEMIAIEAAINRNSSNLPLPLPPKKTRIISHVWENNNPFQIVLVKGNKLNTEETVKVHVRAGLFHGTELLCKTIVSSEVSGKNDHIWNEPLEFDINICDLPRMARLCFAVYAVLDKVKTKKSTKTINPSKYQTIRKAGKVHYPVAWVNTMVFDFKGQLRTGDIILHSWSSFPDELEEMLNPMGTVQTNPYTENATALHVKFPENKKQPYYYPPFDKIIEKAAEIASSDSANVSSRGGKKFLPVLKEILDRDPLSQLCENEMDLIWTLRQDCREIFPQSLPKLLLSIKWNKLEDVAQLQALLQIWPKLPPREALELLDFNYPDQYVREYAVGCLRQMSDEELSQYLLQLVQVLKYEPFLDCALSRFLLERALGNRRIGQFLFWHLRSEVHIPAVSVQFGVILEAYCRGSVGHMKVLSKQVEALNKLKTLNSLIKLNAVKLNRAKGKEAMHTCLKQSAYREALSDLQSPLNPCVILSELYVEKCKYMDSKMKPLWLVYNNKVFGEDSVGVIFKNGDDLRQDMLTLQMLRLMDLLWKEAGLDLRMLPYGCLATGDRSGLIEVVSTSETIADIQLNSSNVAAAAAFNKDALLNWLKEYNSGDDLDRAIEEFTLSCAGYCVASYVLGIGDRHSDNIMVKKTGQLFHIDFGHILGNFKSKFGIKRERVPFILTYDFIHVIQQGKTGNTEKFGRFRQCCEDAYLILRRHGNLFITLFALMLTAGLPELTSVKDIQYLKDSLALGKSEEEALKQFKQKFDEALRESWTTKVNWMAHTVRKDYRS
Sequence of Phosphatidylinositol 4,5-bisphosphate 3-kinase catalytic subunit alpha isoform (P42336 whole entry, canonical isoform): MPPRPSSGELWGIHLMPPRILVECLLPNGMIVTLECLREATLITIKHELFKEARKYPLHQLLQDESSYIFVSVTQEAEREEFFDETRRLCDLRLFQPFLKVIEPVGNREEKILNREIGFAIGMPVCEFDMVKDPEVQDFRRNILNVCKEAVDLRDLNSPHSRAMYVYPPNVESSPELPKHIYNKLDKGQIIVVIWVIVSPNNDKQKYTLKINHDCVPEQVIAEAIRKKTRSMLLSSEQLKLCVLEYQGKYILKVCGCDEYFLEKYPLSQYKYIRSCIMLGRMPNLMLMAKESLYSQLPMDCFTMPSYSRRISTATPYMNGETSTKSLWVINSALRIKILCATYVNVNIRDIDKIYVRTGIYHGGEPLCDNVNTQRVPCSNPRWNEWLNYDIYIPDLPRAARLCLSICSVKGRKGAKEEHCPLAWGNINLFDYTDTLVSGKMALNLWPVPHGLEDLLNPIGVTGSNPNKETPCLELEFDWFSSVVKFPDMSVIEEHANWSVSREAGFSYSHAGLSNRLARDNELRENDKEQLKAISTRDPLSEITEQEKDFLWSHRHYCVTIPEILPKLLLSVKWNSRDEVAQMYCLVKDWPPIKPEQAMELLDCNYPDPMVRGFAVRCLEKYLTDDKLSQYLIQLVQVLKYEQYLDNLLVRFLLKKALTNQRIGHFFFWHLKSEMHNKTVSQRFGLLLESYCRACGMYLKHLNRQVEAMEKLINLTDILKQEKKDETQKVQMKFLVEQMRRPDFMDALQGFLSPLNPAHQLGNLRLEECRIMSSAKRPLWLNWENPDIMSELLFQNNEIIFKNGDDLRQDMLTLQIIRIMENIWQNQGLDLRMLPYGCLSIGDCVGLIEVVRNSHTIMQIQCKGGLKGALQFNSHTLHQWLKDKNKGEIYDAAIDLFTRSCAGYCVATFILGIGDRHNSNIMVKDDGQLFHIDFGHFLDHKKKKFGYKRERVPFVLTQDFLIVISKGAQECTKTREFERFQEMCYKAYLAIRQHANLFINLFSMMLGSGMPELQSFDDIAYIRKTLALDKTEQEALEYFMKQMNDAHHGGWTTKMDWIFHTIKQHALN
Sequence of Phosphatidylinositol 4,5-bisphosphate 3-kinase catalytic subunit gamma isoform (P48736 whole entry, canonical isoform): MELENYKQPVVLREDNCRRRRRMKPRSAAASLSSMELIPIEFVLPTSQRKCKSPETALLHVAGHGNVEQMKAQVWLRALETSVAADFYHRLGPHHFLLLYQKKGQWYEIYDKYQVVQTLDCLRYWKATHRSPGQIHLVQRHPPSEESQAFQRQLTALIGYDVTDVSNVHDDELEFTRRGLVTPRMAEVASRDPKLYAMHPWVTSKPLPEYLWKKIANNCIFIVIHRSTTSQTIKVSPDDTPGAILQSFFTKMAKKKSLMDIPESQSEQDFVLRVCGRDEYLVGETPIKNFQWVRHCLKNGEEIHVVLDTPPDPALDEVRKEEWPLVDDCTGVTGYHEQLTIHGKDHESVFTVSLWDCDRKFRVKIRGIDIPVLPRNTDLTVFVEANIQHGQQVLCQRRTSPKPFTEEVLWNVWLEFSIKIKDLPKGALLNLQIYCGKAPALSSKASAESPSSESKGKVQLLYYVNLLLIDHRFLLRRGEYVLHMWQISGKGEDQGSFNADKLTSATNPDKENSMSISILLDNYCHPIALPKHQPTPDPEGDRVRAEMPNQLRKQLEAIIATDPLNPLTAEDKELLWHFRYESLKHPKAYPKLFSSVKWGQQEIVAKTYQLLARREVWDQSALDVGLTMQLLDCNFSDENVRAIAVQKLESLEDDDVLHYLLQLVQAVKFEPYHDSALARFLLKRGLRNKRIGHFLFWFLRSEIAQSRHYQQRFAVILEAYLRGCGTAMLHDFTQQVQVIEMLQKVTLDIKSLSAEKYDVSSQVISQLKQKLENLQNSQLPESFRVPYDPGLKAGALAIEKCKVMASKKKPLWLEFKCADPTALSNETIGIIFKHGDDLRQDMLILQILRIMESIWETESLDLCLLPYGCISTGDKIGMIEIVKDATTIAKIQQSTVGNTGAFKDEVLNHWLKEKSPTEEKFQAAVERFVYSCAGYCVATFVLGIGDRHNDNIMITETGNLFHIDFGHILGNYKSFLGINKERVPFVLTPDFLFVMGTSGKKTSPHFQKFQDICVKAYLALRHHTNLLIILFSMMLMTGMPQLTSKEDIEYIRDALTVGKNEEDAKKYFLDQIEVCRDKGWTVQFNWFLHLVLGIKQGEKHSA

Structure (SMILES): Cc1c(Cn2c(C)nc(=O)c3sc(N4CCOCC4)nc32)cccc1C(F)(F)F
- IC50 [1]: 2500 nM
- AUC/dose (Mus musculus [2]): 278 ng/(hr.mL.mg.kg)
- Activity (Mus musculus [3]): Non-toxic
- Ratio (Blood): 1.2
- inhibition (Mus musculus [4]): tde
- IC50 [5]: 20 nM
- inhibition in vivo at 300 mg/kg (Mus musculus [6]): 24%
- clearance [7]: 29.6 mL/min/kg
- GI50 (MDA-MB-468): 103 nM
- IC50 [8]: 0.6 nM
- inhibition in vivo at 300 mg/kg (Mus musculus [9]): 64%
- inhibition in vivo at 300 mg/kg (Mus musculus [10]): 68%
- inhibition in vivo at 100 mg/kg (Mus musculus [11]): -17%
- inhibition in vivo at 300 mg/kg (Mus musculus [12]): 72%
- inhibition in vivo at 300 mg/kg (Mus musculus [13]): 48%
- inhibition in vivo at 100 mg/kg (Mus musculus [14]): 53%
- inhibition in vivo at 300 mg/kg (Mus musculus [15]): -1%
- inhibition in vivo at 100 mg/kg (Mus musculus [16]): 46%
- bioavailability [17]: 49%
- half-life [18]: 1.2 h
- inhibition in vivo at 100 mg/kg (Mus musculus [19]): 64%
- EC50 [20]: 24 nM
- TGI (PC-3): Active
- IC50 [21]: 790 nM
- inhibition in vivo at 100 mg/kg (Mus musculus [22]): 63%
- inhibition in vivo at 100 mg/kg (Mus musculus [23]): 58%
- Ratio (Nucleic Acid): 1.2
- Vd [24]: 2.8 L/kg
- inhibition in vivo at 300 mg/kg (Mus musculus [25]): 63%
- inhibition in vivo at 100 mg/kg (Mus musculus [26]): 33%

Source: ChEMBL document CHEMBL2086270, “Rational Design, Synthesis, and SAR of a Novel Thiazolopyrimidinone Series of Selective PI3K-beta Inhibitors” (ACS Med Chem Lett, 2012)
